# Columns and labels:
# [1] = Solubility in water; type: physicochemical
# [2] = Commercial scale boiler comparison of oxygen scavenging
# Description: Commercial scale comparisons were made between carbohydrazide and hydrazine. The tests were run on a system including a deaerator which treats a mixture of feed water and condensate at 60 p.s.i. and 300°-310° F. before it is fed to a first stage heater at 160 p.s.i. and 360°-366° F. and a second stage heater at 400 p.s.i. and 446°-450° F. The second stage heater then feeds into three boilers: a combination boiler at 1,275 p.s.i., a first power boiler at 1,275 p.s.i. and a second power boiler at 400 p.s.i. The treatment chemicals were fed alternatively at the deaerator and just down line from it.
# [3] = Corrosion control under static storage conditions; conditions: 160 moles or more of carbohydrazide per mole of oxygen
# Description: The amount of carbohydrazide required to effectively scavenge oxygen from the boiler water is dependent upon the amount of oxygen actually present therein. It is generally desirable that at least 0.5 moles of carbohydrazide be used per mole of oxygen. These minimum levels of carbohydrazide will have the added benefit of effectively passivating metal surfaces. Of course, levels of carbohydrazide considerably in excess of 0.5 moles per mole of oxygen may be required, particularly for treating boiler water under static storage conditions.
smiles,measurement,setting,value
"NNC(=O)NN [Carbohydrazide, N, N' diaminourea]",Solubility in water,[1],freely soluble in water
same,"Oxygen scavenging relative to hydrazine, various points",[2]; carbohydrazide levels half those of hydrazine,comparable or superior to the hydrazine
same,Oxygen scavenging relative to hydrazine at 360° F.,"[2]; just past first stage heater, carbohydrazide at 50% of hydrazine level",scavenged the oxygen more efficiently than the hydrazine
same,Oxygen scavenging relative to hydrazine at 446° F.,"[2]; just past second stage heater, carbohydrazide at 50% of hydrazine level",scavenged the oxygen more efficiently than the hydrazine
same,Oxygen scavenging relative to hydrazine at 300° F.,"[2]; just past the deaerator, carbohydrazide at 50% of hydrazine level",comparable with the hydrazine
same,Corrosion control under static conditions,[3],effective in controlling corrosion

# — patent US4269717A, “Boiler additives for oxygen scavenging” (priority 1980, dated 1981)
